Among the data in ChEMBL document CHEMBL1201862, “PubChem BioAssay data set” (2004) are IC50, EC50 and AC50 values, retold here.

Experiment [1] concerns the target T1, Small ubiquitin-related modifier 2 (Homo sapiens, UniProt P61956). Kind of experiment: SUMO2–SIM peptide binding inhibitors, dose response, selectivity assay for SUMO1 interaction inhibitor project, biochemical, fluorescence polarization, uHTS hits (AID 624385). It is filed as functional. Particulars: read-out: IC50_Mean.
Experiment [2] concerns the target T2, Small ubiquitin-related modifier 1 (Homo sapiens, UniProt P63165). Kind of experiment: inhibitors of SUMO1 peptide binding, dose response, biochemical, fluorescence polarization, uHTS hits (AID 624382). Particulars: read-out: IC50_Mean. In kind it is functional.
Experiment [3] addresses T1, Small ubiquitin-related modifier 2. The experiment in a line: inhibitors of SUMO2 protein-protein interaction, dose response, selectivity assay for SUMO1 interaction inhibitor project, biochemical, FRET, human SUMO2, uHTS hits (AID 624384). It is filed as functional. The note with it: read-out: IC50_Mean.
Experiment [4] deals with T2, Small ubiquitin-related modifier 1. Kind of experiment: inhibitors of SUMO1 partner interactions, dose response, biochemical, FRET (AID 624383). In kind it is functional. The note with it: read-out: IC50_Mean.
For experiment [5], the target named is T3, Heat shock factor protein 1 (Mus musculus, UniProt P38532).
T3 sequence (P38532 whole entry): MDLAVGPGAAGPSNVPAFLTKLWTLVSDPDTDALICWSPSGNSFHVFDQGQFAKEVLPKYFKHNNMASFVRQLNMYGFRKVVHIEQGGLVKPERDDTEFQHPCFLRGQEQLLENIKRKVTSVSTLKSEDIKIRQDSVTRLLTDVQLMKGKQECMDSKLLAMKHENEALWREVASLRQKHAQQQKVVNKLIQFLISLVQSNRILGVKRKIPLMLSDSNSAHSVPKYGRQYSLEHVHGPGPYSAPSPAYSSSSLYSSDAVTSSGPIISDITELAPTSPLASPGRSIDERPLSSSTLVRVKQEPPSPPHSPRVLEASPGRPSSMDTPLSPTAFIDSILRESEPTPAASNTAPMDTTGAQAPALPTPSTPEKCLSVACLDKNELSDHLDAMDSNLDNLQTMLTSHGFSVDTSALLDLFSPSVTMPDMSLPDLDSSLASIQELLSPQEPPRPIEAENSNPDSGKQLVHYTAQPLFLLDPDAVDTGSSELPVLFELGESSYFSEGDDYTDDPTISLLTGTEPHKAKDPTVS
Kind of experiment: HSF1 potentiators in luciferase reporter cells, confirmation, cell-based, NIH3T3, luminescence, dose retest (AID 435004).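 Also: stress induced by proteasome inhibitor MG132 added 30 min after compound; luciferase reporter driven by HSF1 response element in NIH3T3 cells; actives raise luminescence as potentiators of the MG132 stress response.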 It is filed as functional.

Experiment [6] has as its target T4, Replicative DNA helicase DnaB (Mycobacterium tuberculosis, UniProt P9WMR3).
T4 sequence (P9WMR3 whole entry): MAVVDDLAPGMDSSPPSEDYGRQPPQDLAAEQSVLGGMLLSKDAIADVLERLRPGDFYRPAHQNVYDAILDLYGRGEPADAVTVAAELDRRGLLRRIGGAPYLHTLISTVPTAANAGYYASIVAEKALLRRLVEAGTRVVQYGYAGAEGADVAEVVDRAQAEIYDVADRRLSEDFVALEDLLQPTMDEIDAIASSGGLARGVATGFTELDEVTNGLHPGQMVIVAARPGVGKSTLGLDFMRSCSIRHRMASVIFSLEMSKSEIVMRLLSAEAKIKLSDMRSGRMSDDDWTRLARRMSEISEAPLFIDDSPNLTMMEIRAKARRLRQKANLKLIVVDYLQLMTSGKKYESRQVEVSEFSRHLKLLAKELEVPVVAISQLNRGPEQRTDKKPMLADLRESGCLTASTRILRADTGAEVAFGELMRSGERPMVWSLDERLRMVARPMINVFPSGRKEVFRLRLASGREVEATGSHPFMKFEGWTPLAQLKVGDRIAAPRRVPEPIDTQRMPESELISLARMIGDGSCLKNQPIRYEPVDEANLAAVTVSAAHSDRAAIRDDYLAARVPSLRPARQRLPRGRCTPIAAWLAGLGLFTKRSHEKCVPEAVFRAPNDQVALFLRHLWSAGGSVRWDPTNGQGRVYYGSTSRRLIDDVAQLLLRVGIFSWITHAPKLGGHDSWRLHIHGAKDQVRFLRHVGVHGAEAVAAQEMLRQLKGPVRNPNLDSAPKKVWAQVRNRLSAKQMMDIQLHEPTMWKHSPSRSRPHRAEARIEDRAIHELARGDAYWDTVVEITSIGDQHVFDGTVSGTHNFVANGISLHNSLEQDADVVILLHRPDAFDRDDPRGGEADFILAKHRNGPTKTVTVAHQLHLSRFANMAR
Kind of experiment: DnaB intein splicing inhibitors, dose response, biochemical, cell-free fluorescence (AID 449749). In kind it is functional.

The target of the next experiment is T5, Protein RecA (Mycobacterium tuberculosis, UniProt P9WHJ3).
T5 sequence (P9WHJ3 whole entry): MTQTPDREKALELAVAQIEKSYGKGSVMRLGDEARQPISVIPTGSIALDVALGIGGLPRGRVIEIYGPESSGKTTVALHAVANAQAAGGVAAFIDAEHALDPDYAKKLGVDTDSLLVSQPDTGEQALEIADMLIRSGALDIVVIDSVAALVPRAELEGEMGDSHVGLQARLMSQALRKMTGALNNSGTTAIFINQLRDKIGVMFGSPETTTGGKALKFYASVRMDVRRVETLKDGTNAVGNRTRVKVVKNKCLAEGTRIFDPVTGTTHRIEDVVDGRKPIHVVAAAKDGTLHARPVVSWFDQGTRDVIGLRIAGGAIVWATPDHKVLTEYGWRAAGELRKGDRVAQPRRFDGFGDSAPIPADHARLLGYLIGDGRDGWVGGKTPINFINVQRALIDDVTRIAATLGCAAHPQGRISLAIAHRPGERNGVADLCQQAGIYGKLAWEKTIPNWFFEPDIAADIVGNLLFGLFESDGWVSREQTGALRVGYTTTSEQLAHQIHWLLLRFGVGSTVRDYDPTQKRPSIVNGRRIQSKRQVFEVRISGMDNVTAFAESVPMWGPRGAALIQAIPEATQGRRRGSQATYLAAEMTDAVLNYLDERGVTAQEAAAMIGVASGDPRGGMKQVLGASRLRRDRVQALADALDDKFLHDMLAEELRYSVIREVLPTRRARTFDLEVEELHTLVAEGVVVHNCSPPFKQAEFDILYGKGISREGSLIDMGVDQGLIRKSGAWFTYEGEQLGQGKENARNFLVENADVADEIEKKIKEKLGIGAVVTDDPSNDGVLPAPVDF
Kind of experiment: Fluorescence Cell-Free Homogeneous Dose Retest to Identify Inhibitors of RecA-Intein Splicing Activity. [Related pubchem assays (depositor defined):AID2097, AID2223, AID489010, AID492950]. In kind it is functional.

Experiment [7] deals with T6, Melanocortin receptor 4 (Homo sapiens, UniProt P32245). Kind of experiment: MC4R antagonist potency on cAMP, dose response, cell-based, TR-FRET, biased antagonists (AID 602298).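 Also: antagonist potency against agonist-stimulated cAMP production.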 In kind it is functional.
T6 sequence (P32245 whole entry): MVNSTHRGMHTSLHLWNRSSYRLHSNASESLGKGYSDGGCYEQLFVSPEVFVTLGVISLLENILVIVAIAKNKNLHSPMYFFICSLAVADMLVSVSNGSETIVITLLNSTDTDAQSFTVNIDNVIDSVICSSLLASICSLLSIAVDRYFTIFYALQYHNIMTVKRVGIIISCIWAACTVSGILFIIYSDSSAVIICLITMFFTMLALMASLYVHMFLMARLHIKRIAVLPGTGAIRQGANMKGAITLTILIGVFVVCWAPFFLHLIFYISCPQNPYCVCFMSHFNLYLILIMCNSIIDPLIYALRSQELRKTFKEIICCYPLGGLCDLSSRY
Experiment [8] deals with T7, Polyadenylate-binding protein 1 (Homo sapiens, UniProt P11940). Kind of experiment: PABP1 MLLE–PAM2 interaction inhibitors, dose response, miRNA deadenylation inhibitor project, biochemical, fluorescence polarization, Cy5-PAM2 peptide, secondary (AID 602260). It is filed as functional. Particulars: read-out: IC50_Mean.
T7 sequence (P11940 whole entry): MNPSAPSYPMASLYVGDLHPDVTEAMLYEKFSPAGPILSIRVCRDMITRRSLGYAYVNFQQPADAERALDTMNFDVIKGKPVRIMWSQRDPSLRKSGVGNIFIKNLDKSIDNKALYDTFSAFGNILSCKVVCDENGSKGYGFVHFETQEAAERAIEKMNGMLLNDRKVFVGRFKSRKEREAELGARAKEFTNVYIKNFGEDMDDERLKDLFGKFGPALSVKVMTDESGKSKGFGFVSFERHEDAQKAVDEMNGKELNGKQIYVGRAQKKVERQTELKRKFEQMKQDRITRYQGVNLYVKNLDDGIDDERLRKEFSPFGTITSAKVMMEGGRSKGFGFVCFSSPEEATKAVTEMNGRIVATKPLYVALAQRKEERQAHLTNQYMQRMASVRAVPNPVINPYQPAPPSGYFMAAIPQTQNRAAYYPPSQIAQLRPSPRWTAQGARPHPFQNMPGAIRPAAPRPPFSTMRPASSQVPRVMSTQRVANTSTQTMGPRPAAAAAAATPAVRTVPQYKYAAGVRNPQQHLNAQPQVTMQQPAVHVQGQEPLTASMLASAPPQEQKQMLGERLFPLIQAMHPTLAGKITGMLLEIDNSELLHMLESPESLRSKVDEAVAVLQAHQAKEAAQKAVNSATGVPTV
For experiment [9], the target named is T7, Polyadenylate-binding protein 1. The experiment in a line: PABP1 MLLE–PAM2 binding inhibitor potency, dose response, biochemical, fluorescence polarization, FITC-PAM2 peptide (AID 602259). In kind it is functional. Particulars: read-out: IC50_Mean.
Experiment [10] in a line: nonselective inhibitors of cellular cAMP signaling, dose response, counter-screen for MC4R biased antagonist project, cell-based, TR-FRET cAMP detection (AID 602305).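 Also: U2OS cells stimulated with forskolin near its EC80 as the cAMP inducer; potency is for inhibition of forskolin-stimulated cAMP signaling.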 It is filed as functional.
The target of experiment [11] is SWI/SNF-related matrix-associated actin-dependent regulator of chromatin subfamily A member 2 (Homo sapiens, UniProt P51531). Kind of experiment: Luminescence-based cell-based high throughput dose response assay to identify activators of the function of SWI/SNF related, matrix associated, actin dependent regulator of chromatin, subfamily a, member 2 (SMARCA2, BRM). It is filed as functional.

Experiment [12] is described as follows: Counterscreen for activators of the function of SWI/SNF related, matrix associated, actin dependent regulator of chromatin, subfamily a, member 2 (SMARCA2, BRM): Luminescence-based cell-based high throughput dose response assay to identify non-selective compounds using the VP16 reporter assay. It is filed as functional.
Experiment [13] concerns the target Ras and Rab interactor 1/Tyrosine-protein kinase ABL1 (Homo sapiens, UniProt P00519+Q13671). It is filed as functional.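 Also: biochemical TR-FRET dose-response test measuring inhibition of binding between Rin1 and Abl proteins.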
Experiment [14] addresses T8, COUP transcription factor 2 (Homo sapiens, UniProt P24468).
T8 sequence (P24468 whole entry): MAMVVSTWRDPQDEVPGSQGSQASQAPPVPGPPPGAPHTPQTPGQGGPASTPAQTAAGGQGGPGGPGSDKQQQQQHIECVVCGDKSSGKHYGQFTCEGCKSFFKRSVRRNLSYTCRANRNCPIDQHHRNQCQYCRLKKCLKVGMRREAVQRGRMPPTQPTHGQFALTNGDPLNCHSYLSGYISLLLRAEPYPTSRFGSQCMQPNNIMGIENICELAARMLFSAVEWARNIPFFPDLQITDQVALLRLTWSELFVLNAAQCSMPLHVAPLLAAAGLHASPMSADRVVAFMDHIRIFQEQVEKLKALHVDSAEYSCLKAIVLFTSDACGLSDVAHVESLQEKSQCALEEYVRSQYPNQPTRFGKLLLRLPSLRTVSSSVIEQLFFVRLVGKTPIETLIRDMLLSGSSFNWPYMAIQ
Kind of experiment: Luminescence-based cell-based high throughput dose response assay to identify inhibitors of COUP-TFII (NR2F2). In kind it is functional.

The target in experiment [15] is T6, Melanocortin receptor 4. In kind it is functional, cell-based.
Experiment [16] deals with Nuclear receptor subfamily 5 group A member 2 (Homo sapiens, UniProt O00482). In kind it is functional, cell-based.
Sequence of Nuclear receptor subfamily 5 group A member 2 (O00482 whole entry): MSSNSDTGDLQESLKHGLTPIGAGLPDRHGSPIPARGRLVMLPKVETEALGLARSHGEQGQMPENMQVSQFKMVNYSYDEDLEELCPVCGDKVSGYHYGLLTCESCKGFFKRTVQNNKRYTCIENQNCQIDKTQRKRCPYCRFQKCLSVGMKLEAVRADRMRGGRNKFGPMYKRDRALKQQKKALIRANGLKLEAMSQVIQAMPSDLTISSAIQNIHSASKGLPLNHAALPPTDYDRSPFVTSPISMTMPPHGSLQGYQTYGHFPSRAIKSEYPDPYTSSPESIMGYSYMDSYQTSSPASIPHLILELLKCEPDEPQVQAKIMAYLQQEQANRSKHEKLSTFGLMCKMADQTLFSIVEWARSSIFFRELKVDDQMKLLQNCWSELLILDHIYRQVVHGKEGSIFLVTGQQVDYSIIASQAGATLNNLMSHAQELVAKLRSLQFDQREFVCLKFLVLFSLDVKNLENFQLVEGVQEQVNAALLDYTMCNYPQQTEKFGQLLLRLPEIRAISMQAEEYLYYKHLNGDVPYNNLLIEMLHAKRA
The target of another experiment is Steroidogenic factor 1 (Homo sapiens, UniProt Q13285). Kind of experiment: Counterscreen for inverse agonists of the liver receptor homolog-1 (LRH-1; NR5A2): Luminescence-based cell-based high throughput dose response assay to identify inverse agonists of the Steroidogenic Factor 1 Nuclear Receptor (SF1; NR5A1). In kind it is functional.
Sequence of Steroidogenic factor 1 (Q13285 whole entry): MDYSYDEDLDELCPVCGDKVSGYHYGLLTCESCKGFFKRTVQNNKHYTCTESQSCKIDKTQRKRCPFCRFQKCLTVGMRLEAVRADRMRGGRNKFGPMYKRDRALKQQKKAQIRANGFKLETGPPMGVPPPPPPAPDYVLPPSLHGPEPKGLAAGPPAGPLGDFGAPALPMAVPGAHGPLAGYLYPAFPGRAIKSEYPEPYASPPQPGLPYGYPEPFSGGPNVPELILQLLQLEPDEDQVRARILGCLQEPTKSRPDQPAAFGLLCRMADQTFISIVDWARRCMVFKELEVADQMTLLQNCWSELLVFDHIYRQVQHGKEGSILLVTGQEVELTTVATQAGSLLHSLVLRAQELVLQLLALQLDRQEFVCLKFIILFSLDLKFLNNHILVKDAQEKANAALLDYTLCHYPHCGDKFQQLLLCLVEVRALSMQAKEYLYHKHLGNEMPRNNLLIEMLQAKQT
Experiment [17] is described as follows: StAR promoter reporter inhibition counter-screen, dose response, counter-screen for LRH-1 inverse agonist project, cell-based, luminescence, luciferase reporter (AID 651969). In kind it is functional.
The target of experiment [18] is T9, Carboxy-terminal domain RNA polymerase II polypeptide A small phosphatase 1 (Homo sapiens, UniProt Q9GZU7).
T9 sequence (Q9GZU7 whole entry): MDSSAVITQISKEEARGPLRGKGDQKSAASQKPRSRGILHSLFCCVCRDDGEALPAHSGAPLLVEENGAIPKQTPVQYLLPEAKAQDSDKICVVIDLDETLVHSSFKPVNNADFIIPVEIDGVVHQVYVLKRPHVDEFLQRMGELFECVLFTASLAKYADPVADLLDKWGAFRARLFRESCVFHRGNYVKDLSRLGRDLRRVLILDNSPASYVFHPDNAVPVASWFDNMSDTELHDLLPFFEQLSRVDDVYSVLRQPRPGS
Kind of experiment: inhibitors of CTDSP1, concentration-response testing, biochemical assay, absorbance-based, actives from ultra-high-throughput screening (AID 540297). It is filed as functional.

Experiment [19] concerns the target T10, Probable nicotinate-nucleotide adenylyltransferase (Staphylococcus aureus (strain N315), UniProt P65502). It is filed as functional, Staphylococcus aureus subsp. aureus N315.
The target in experiment [20] is T10, Probable nicotinate-nucleotide adenylyltransferase. It is filed as functional, Staphylococcus aureus subsp. aureus N315. The note with it: read-out: IC50_Mean.
Experiment [21] is described as follows: cells. It is filed as functional, cell-based.
The nature of experiment [22]: cells. In kind it is functional, cell-based. This is another data set of the same source.

Active and inactive are the calls of the source.

T2 sequence (P63165 whole entry): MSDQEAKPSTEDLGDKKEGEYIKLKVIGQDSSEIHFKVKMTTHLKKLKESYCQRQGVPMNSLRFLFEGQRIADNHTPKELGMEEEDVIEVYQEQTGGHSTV
T1 sequence (P61956 whole entry): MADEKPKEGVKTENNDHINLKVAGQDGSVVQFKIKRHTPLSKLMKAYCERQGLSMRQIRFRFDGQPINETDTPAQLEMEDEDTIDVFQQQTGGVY
Sequence of Ras and Rab interactor 1/Tyrosine-protein kinase ABL1 (P00519 whole entry): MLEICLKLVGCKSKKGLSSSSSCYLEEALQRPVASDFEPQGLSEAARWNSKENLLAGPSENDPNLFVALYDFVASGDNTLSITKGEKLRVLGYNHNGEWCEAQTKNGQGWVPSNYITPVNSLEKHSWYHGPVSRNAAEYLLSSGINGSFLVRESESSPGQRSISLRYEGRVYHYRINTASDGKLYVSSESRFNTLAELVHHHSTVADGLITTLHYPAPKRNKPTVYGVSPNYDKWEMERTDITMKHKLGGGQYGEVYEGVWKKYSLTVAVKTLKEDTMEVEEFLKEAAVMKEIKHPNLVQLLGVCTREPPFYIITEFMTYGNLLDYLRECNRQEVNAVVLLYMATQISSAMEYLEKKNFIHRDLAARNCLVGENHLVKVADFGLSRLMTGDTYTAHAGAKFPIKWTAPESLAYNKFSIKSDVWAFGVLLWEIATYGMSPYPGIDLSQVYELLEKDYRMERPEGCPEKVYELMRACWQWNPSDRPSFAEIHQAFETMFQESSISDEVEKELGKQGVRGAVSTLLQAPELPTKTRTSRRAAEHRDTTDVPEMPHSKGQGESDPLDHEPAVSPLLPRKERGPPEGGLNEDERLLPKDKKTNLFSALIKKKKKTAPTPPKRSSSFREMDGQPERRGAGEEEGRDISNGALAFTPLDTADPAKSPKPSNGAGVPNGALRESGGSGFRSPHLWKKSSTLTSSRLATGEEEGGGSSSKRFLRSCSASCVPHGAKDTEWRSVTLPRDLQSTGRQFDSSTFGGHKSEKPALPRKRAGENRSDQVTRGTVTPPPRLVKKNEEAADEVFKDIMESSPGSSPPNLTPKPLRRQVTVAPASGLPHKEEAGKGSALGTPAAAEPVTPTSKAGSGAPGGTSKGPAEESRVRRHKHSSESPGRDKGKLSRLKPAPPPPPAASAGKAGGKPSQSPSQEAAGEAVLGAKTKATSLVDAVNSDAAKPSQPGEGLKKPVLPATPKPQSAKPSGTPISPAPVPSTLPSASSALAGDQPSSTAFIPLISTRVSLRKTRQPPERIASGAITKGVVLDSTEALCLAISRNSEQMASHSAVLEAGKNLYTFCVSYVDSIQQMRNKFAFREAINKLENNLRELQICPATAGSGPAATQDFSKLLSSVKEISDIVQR
Sequence of Ras and Rab interactor 1/Tyrosine-protein kinase ABL1 (Q13671 whole entry): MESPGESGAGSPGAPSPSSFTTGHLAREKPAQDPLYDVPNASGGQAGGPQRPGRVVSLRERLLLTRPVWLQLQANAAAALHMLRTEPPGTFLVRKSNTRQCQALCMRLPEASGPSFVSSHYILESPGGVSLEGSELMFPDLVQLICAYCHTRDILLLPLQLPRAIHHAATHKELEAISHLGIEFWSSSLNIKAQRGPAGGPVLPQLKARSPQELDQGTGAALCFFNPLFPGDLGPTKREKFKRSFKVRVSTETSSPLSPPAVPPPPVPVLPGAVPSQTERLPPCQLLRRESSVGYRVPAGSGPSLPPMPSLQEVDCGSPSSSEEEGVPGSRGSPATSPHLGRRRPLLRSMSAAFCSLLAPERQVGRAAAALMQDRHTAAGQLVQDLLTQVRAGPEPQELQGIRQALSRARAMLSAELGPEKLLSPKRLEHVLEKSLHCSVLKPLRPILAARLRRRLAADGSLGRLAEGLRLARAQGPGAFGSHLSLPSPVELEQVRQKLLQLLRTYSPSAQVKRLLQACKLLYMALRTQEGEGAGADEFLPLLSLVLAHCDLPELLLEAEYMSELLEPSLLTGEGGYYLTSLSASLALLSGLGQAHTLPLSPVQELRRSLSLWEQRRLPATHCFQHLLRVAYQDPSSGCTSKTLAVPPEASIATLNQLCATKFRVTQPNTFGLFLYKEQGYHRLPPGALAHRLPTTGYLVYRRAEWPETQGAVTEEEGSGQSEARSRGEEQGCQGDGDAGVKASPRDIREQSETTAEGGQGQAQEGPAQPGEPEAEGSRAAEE
T10 sequence (P65502 whole entry): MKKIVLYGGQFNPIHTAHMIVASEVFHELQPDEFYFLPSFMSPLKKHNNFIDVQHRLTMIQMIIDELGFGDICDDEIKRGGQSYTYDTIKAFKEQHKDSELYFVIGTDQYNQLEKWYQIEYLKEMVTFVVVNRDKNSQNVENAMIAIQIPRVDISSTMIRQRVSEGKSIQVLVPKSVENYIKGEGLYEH

With `C[C@H]([C@@H](O)[C@@H](O)[C@@H](C)C(C)(C)C)[C@H]1CC[C@H]2[C@@H]3CC[C@H]4C[C@H](OS(=O)(=O)O)[C@@H](OS(=O)(=O)O)C[C@]4(C)[C@H]3CC[C@]12C`, the IC50 is 25.5 µM (inactive) in experiment [1], 11 µM (active) in experiment [2], 16.3 µM (active) in experiment [3] and 22.5 µM (inactive) in experiment [4].
On to `CC(=O)Nc1cccc(NC(=O)CSc2ncc(C(=O)Nc3ccccc3)c(=O)n2C)c1`, for which the concentration giving a half-maximal response (EC50) was 12.8 µM (active) in experiment [5], 1.61 µM (active) on Protein RecA, > 91.1 µM (inactive) in experiment [11] and > 91.1 µM (inactive) in [12]. Further, the AC50 in [6] is 6.51 µM (active). Also, the IC50 was > 64.6 µM (inactive) on Melanocortin receptor 4 [7], > 66 µM (inactive) in experiment [8], > 66 µM (inactive) in experiment [9] and > 64.6 µM (inactive) in [10].
Regarding `OC[C@@H]1CN(Cc2ccc(-c3ccccc3)cc2)C[C@H](n2cnc3c(NC4CCC4)ncnc32)O1`, the values for the IC50 in experiment [13] and in experiment [14] were 16.7 µM (inactive) and 8.62 µM (active), respectively.
For `CC(=O)Nc1cc(-c2cccnc2)cn2c(-c3ccc(F)cc3)cnc12`, on Melanocortin receptor 4 [15], the EC50 was > 89.2 µM (inactive). The IC50 in experiment [16] was 22.3 µM (inactive); at Steroidogenic factor 1, 4.56 µM (active); in [17], 35.9 µM (inactive).
Take `O=C1N=c2ccccc2=C1Nc1ccc(S(=O)(=O)Nc2nccs2)cc1`: the IC50 in [18] is 4.2 µM (active); in experiment [1], 9.54 µM (active); in experiment [2], 11 µM (active); in experiment [19] it was 5.32 µM (active); in experiment [20], 15.5 µM (active); in experiment [3] it was 46.1 µM (inactive). Also, the IC50 in experiment [4] is 51 µM (inactive).
On to `COc1ccc(NC(=O)CSc2[nH]cnc3nncc2-3)cc1`, for which the EC50 in the experiment “cells [21]” and in “cells [22]” was > 350 µM (not active) each time. The values for the IC50 (in [16]; on Steroidogenic factor 1; in experiment [17]) were 1.37 µM (active), 1.73 µM (active) and 35.9 µM (inactive), respectively.
Regarding `CCCCc1nnc(NC(=O)c2ccc(OCc3c(C)noc3C)cc2)s1`, the IC50 in experiment [13] was > 73.5 µM (inactive).
